Assay results taken from patent US20030092077A1, “Human sperm activator peptides” (priority 2001, published 2003).

Tests used:
human sperm [1] = assay: Sperm chemotaxis assay with phage displaying the peptide (two-chamber apparatus); format: cell-based; conditions: 37° C. for 1 hr; for sperm count in the lower chamber: one experiment done in triplicate, phage displaying peptide
Description: (§1) Preparation of sperm: One tube (0.5 ml) of a sperm sample was thawed at room temperature for 15-20 mm. As soon as the sperm was thawed, 0.5 ml of Hams-F10 medium was added, and the sample transferred to a 5 ml culture tube. The sperm was diluted to 4 ml with Hams-F10 medium, mixed well, and centrifuged at 2000 rpm for 5 mm. The supernatant was decanted and the cells resuspended in 4 ml of fresh Hams-F 10 medium. The centrifugation was repeated and the clean sperm pellet resuspended in 1 ml Hams-F10 medium. A 50 μl sample aliquot was used per each assay condition.
Assay: The chambers of the assay apparatus were assembled with 8.iM membranes pre-wetted with Hams-F10 medium. A sample of phage containing a specific peptide sequence or a control peptide sequence was diluted with Hams-F10 medium to give a 100 ml phage containing solution which was placed in the bottom chamber of the apparatus. A sperm sample having at least 1×10^6 sperm was added to the upper chamber. After incubation 37° C. for 1 hr, the sample in the bottom chamber was collected into microfuge tubes and centrifuged at 6000 rpm for 5 mm. The supernatant was removed and the pellet resuspended in suitable volume to be counted in a hemocytometer.
Results: Various concentrations of phage containing the Husap peptide (TMGFTAPRFPHY; SEQ. ID. NO. 1), phage containing a control sequence (KSLSRHDHIHHH; SEQ. ID. NO. 20) or buffer without phage were used in the assays. Sperm counts 2-15 fold greater in the well containing the Husap peptide displaying phage were consistently obtained when compared to control phage or buffer-alone chambers. For example, in one experiment done in triplicate, the sperm count in the lower chamber was 76×10^4 for the Husap peptide compared to 5×10^4 for the control peptide and 21×10^4 for buffer alone.

human sperm [2] = assay: Effect of varying concentrations of Husap peptide on chemotaxis of human sperm; format: cell-based; conditions: 2.8×10^6 sperm in upper chamber, 5 micron membrane, 37° C. 1 h
Description: as §1
The effect of varying concentrations of the Husap peptide on chemotaxis of human sperm was also determined. Sperm at a concentration of 2.8×10^6 were added to the upper chamber. The peptide concentration in the lower chamber was varied from 0 μl to […] of peptide. Sperm were separated from the lower chamber by a 5 micron membrane filter. The chambers were incubated at 37° C. for 1 h. At the end of the incubation, sperm were collected from the lower chamber and counted in a hemocytometer. The experiment was performed several times with varying peptide concentrations and with 5 and 8 micron membranes.

Row | Substance | sperm count in the lower chamber (human sperm [1]) | Sperm counts, fold greater compared to control phage or buffer-alone chambers (human sperm [1]; phage displaying peptide in bottom chamber, various phage concentrations) | Sperm Count in Lower Chamber (human sperm [2]; HusaP concentration 10 uM) | Sperm Count in Lower Chamber (human sperm [2]; HusaP concentration 20 uM) | Sperm Count in Lower Chamber (human sperm [2]; HusaP concentration 100 uM)
1 | KSLSRHDHIHHH [control peptide, reference compound] | 5×10^4 |  |  |  | 
2 | NH2-Thr-Met-Gly-Phe-Thr-Ala-Pro-Arg-Phe-Pro-His-Tyr-COOH (H-TMGFTAPRFPHY-OH; listed as Homo sapiens) [Husap peptide, human sperm chemotactic peptide …] | 76×10^4 | 2-15 fold | 6 × 10^4 | 12 × 10^4 | 52 × 10^4
